± gives the standard deviation of the averaged measurements.
What was measured:
Test in all cases: level (log10 ratio to DMSO vehicle control); higher = higher biomarker level / cell amount than vehicle control
Details in all cases: in DMSO
[1] = compound: CC(C)(C)C(=O)CC(=O)C(F)(F)C(F)(F)C(F)(F)F [(Heptafluorobutanoyl)pivaloylmethane]
Protocol: (§1)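 BioMAP Diversity Plus panel of 12 human primary cell co-culture systems (3C, 4H, LPS, SAg, BT, BF4T, BE3C, CASM3C, HDF3CGF, KF3CT, MyoF, Mphg). Compounds were added 1 h before stimulation and left for 24 h (MyoF 48 h; BT 72 h for soluble read-outs or 6 d for IgG). Biomarkers were read by ELISA, cytotoxicity by SRB, PBMC viability and proliferation by Alamar Blue. Each well value was divided by the mean of 8 DMSO control wells on the same plate and log10 transformed; duplicate blinded samples were tested at 4 concentrations.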

[2] = compound: CNS(=O)(=O)C(F)(F)C(F)(F)C(F)(F)C(F)(F)C(F)(F)C(F)(F)C(F)(F)C(F)(F)F [N-Methylperfluorooctanesulfonamide]
Protocol: as §1

Azathioprine = compound: Cn1cnc([N+](=O)[O-])c1Sc1ncnc2[nH]cnc12 [Azathioprine]
Protocol: as §1

[3] = compound: FC(F)(F)C(F)(F)C(F)(F)C(F)(F)C(F)(F)C(F)(F)C(F)(F)CCI [1-Iodo-1H,1H,2H,2H-perfluorononane]
Protocol: as §1

[4] = compound: O=C(O)CCC(F)(F)C(F)(F)C(F)(F)C(F)(F)C(F)(F)F [2H,2H,3H,3H-Perfluorooctanoic acid]
Protocol: as §1

[5] = compound: O=P(O)(O)CCC(F)(F)C(F)(F)C(F)(F)C(F)(F)C(F)(F)C(F)(F)C(F)(F)C(F)(F)F [((Perfluorooctyl)ethyl)phosphonic acid]
Protocol: as §1

Test System | level (log10) ([1]; 6700 nM) | level (log10) ([1]; 20000 nM) | level (log10) ([1]; 60000 nM) | level (log10) ([2]; 6700 nM) | level (log10) ([2]; 20000 nM) | level (log10) ([2]; 60000 nM) | level (log10) (Azathioprine; 1400 nM) | level (log10) (Azathioprine; 4200 nM) | level (log10) (Azathioprine; 13000 nM) | level (log10) (Azathioprine; 38000 nM) | level (log10) ([3]; 6700 nM) | level (log10) ([3]; 20000 nM) | level (log10) ([4]; 6700 nM) | level (log10) ([4]; 20000 nM) | level (log10) ([4]; 60000 nM) | level (log10) ([5]; 6700 nM) | level (log10) ([5]; 20000 nM) | level (log10) ([5]; 60000 nM)
CASM3C:M-CSF | 0.002 ± 0.017 | -0.0165 ± 0.013 | -0.016 ± 0.014 | 0 ± 0.016 | 0.0105 ± 0.077 | 0.0575 ± 0.042 | 0.0065 ± 0.00071 | -0.0255 ± 0.018 | -0.0305 ± 0.0064 | -0.007 ± 0.038 | -0.0035 ± 0.0078 | 0.0125 ± 0.028 | -0.006 ± 0.0028 | -0.0035 ± 0.0064 | 0.0185 ± 0.06 | -0.0145 ± 0.011 | -0.008 ± 0.011 | 0.045 ± 0.04
HDF3CGF:EGFR | 0.027 ± 0.016 | -0.102 ± 0.031 | 0.009 ± 0.055 | 0.016 ± 0.0057 | -0.014 ± 0.023 | 0.0055 ± 0.0064 | -0.006 ± 0.0014 | -0.0565 ± 0.076 | -0.05 ± 0.061 | -0.011 ± 0.1 | 0.016 | 0.0295 ± 0.023 | -0.055 ± 0.025 | -0.0435 ± 0.037 | -0.0205 ± 0.03 | -0.0125 ± 0.016 | -0.045 ± 0.024 | -0.126 ± 0.059
3C:CD142/Tissue Factor | -0.0205 ± 0.015 | -0.0235 ± 0.005 | -0.053 ± 0.014 | -0.128 ± 0.0057 | -0.108 ± 0.031 | -0.106 ± 0.012 | 0.02 ± 0.024 | 0.0255 ± 0.046 | 0.042 ± 0.051 | 0.042 ± 0.02 | 0.01 ± 0.0071 | 0.0065 ± 0.0078 | 0.009 ± 0.0028 | 0.018 ± 0.0071 | 0.022 ± 0.0085 | 0.025 ± 0.03 | 0.0455 ± 0.015 | 0.101 ± 0.023
lMphg:SRB-Mphg | -0.0025 ± 0.0078 | -0.0125 ± 0.012 | 0.0035 ± 0.019 | 0.0005 ± 0.0035 | 0 ± 0.0042 | -0.018 ± 0.02 | -0.001 ± 0.031 | -0.0085 ± 0.0021 | -0.0155 ± 0.011 | -0.0235 ± 0.0021 | 0.001 ± 0.03 | 0.001 ± 0.011 | 0.0115 ± 0.0035 | 0.0065 ± 0.015 | 0.007 ± 0.017 | 0.0005 ± 0.015 | -0.0055 ± 0.00071 | -0.0515 ± 0.022
KF3CT:SRB | -0.0055 ± 0.0021 | -0.003 ± 0.0071 | -0.0065 ± 0.005 | -0.0005 ± 0.00071 | -0.0035 ± 0.0078 | -0.002 ± 0.024 | 0.003 ± 0.0057 | 0.0015 ± 0.0064 | 0.001 ± 0.0057 | -0.0065 ± 0.0021 | 0.0005 ± 0.005 | 0.005 ± 0.013 | -0.006 ± 0.0014 | -0.0015 ± 0.005 | 0.006 ± 0.0085 | 0.0025 ± 0.0035 | -0.001 ± 0.013 | 0.0085 ± 0.00071
CASM3C:CCL2/MCP-1 | -0.008 ± 0.017 | -0.0025 ± 0.021 | -0.0075 ± 0.0092 | 0.0095 ± 0.022 | 0.0295 ± 0.012 | 0.0645 ± 0.039 | 0.0135 ± 0.044 | -0.012 ± 0.014 | -0.0195 ± 0.021 | -0.001 ± 0.052 | 0.003 ± 0.0099 | 0.02 ± 0.018 | -0.002 ± 0.014 | 0.002 ± 0.0042 | 0.013 ± 0.028 | -0.007 ± 0.0071 | -0.0085 ± 0.013 | 0.012 ± 0.058
3C:CD54/ICAM-1 | -0.0015 ± 0.019 | -0.0095 ± 0.005 | 0.03 ± 0.011 | -0.0265 ± 0.022 | 0.103 ± 0.026 | 0.043 ± 0.0014 | 0.0035 ± 0.005 | -0.014 ± 0.031 | -0.0085 ± 0.0092 | -0.016 ± 0.013 | -0.0115 ± 0.00071 | 0.0025 ± 0.016 | 0.0005 ± 0.0064 | -0.0055 ± 0.018 | -0.0175 ± 0.022 | -0.012 ± 0.014 | -0.0185 ± 0.012 | -0.021 ± 0.0085
HDF3CGF:CXCL11/I-TAC | 0.012 ± 0.014 | -0.0155 ± 0.005 | -0.06 ± 0.013 | -0.0385 ± 0.015 | -0.069 ± 0.0071 | -0.0495 ± 0.011 | -0.0495 ± 0.018 | -0.042 ± 0.055 | -0.078 ± 0.014 | -0.21 ± 0.04 | -0.0295 ± 0.005 | -0.094 ± 0.018 | -0.0455 ± 0.12 | -0.084 ± 0.11 | -0.0825 ± 0.11 | 0.084 ± 0.0014 | 0.064 ± 0.018 | -0.0155 ± 0.035
KF3CT:uPA | 0.0025 ± 0.016 | -0.0055 ± 0.012 | -0.003 ± 0.027 | 0.007 ± 0.014 | -0.011 ± 0.014 | -0.0085 ± 0.012 | 0.011 ± 0.0028 | 0.015 ± 0.016 | -0.003 ± 0.0071 | -0.0025 ± 0.0078 | 0.0025 ± 0.018 | 0.006 ± 0.016 | -0.008 ± 0.013 | -0.0095 ± 0.033 | -0.004 ± 0.041 | 0.0065 ± 0.018 | 0.003 ± 0.016 | 0.0025 ± 0.0092
HDF3CGF:PAI-I | 0.011 ± 0.016 | 0.0255 ± 0.00071 | 0.0685 ± 0.049 | 0.051 ± 0.0028 | 0.0455 ± 0.019 | 0.063 ± 0.02 | 0.022 ± 0.054 | -0.015 ± 0.037 | -0.0545 ± 0.04 | -0.198 ± 0.021 | 0.0075 ± 0.023 | -0.0095 ± 0.032 | 0.0145 ± 0.016 | -0.004 ± 0.011 | -0.0085 ± 0.0078 | -0.028 ± 0.035 | -0.101 ± 0.06 | -0.2695 ± 0.0021
MyoF:Collagen I | -0.0165 ± 0.011 | -0.007 ± 0.0099 | 0.0065 ± 0.013 | -0.019 ± 0.0071 | -0.0015 ± 0.023 | 0.0265 ± 0.026 | -0.0085 ± 0.015 | -0.0095 ± 0.013 | -0.024 | 0.011 ± 0.0028 | 0.007 ± 0.0042 | -0.015 ± 0.028 | 0.013 ± 0.0014 | -0.0005 ± 0.0064 | 0.0055 ± 0.018 | -0.021 ± 0.0014 | -0.014 ± 0.0057 | -0.009 ± 0.035
CASM3C:CXCL8/IL-8 | -0.006 ± 0.0042 | -0.018 ± 0.0028 | -0.0045 ± 0.025 | -0.003 ± 0.017 | 0.012 ± 0.025 | 0.035 ± 0.021 | -0.0095 ± 0.0064 | -0.023 ± 0.0085 | -0.023 ± 0.0057 | -0.009 ± 0.024 | 0.004 ± 0.0042 | 0.004 ± 0.0028 | 0.0055 ± 0.018 | -0.0055 ± 0.0021 | 0.0175 ± 0.00071 | -0.01 ± 0.02 | 0 ± 0.024 | 0.023 ± 0.048
lMphg:CD62E/E-Selectin | -0.017 | -0.0085 ± 0.012 | -0.0525 ± 0.011 | -0.12 ± 0.034 | -0.214 ± 0.03 | -0.182 ± 0.058 | -0.037 ± 0.045 | -0.031 ± 0.048 | -0.064 ± 0.0085 | -0.148 ± 0.051 | 0.016 ± 0.02 | 0.001 ± 0.0099 | 0.0015 ± 0.035 | 0.0165 ± 0.0064 | 0.0415 ± 0.00071 | 0.011 ± 0.0014 | 0.027 ± 0.0085 | 0.113 ± 0.018
BE3C:uPA | 0.0025 ± 0.018 | -0.0035 ± 0.023 | 0.002 ± 0.03 | 0.008 ± 0.0085 | 0.0065 ± 0.0064 | 0.003 ± 0.0014 | -0.0025 ± 0.016 | 0 ± 0.013 | -0.0115 ± 0.019 | -0.041 ± 0.016 | 0.003 ± 0.033 | -0.0125 ± 0.015 | 0.0025 ± 0.011 | -0.009 ± 0.0085 | 0.0025 ± 0.005 | 0.014 ± 0.0014 | 0.022 ± 0.0014 | 0.023 ± 0.0014
MyoF:Collagen III | -0.0115 ± 0.0021 | -0.002 ± 0.013 | 0.026 ± 0.0028 | -0.0185 ± 0.016 | -0.007 ± 0.018 | -0.0175 ± 0.005 | -0.019 ± 0.021 | -0.0135 ± 0.016 | -0.0275 ± 0.0064 | -0.0115 ± 0.0092 | 0.0145 ± 0.0021 | -0.0055 ± 0.03 | -0.021 ± 0.023 | -0.026 ± 0.024 | -0.0115 ± 0.022 | -0.013 ± 0.014 | -0.013 ± 0.017 | -0.073 ± 0.05
KF3CT:CD54/ICAM-1 | -0.0095 ± 0.011 | -0.0265 ± 0.018 | -0.021 ± 0.0042 | 0.031 ± 0.03 | -0.035 ± 0.014 | 0.018 ± 0.0028 | -0.02 ± 0.0028 | 0.0015 ± 0.0092 | -0.005 ± 0.0085 | 0.0045 ± 0.011 | -0.0045 ± 0.0092 | -0.0175 ± 0.025 | -0.016 ± 0.0085 | -0.0205 ± 0.018 | -0.0285 ± 0.023 | 0.019 ± 0.034 | 0.013 ± 0.018 | -0.0055 ± 0.049
